Data published in paper PMC5997408 (Chemical Research in Toxicology, 2017).

Tests used:
NQO2 [1] = target: T1, NQO2 (Homo sapiens, UniProt P16083); assay: Inhibition of recombinant NQO2, MTT reduction with BNAH; assay type: biochemical
T1 sequence (P16083 1-231): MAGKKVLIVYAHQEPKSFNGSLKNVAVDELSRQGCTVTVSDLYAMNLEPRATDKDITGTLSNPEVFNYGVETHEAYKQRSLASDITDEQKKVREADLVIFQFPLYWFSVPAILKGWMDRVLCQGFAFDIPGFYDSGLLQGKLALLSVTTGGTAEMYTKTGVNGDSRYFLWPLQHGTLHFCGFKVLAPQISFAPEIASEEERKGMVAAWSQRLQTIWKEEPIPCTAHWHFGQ

NQO2 [2] = target: T1, NQO2; conditions: 0.25 μM NQO2, tacrine 0, 5, 10, or 20 μM, 50 μM quinone imine
CYP = conditions: up to 25 μM of tacrine, all four microsomal-activated drugs (data not shown)
NQO1 = NQO1 (Homo sapiens, UniProt P15559); assay: Inhibition of recombinant NQO1, DCPIP reduction; assay type: biochemical
[3] = cited from earlier work
NQO2 [4] = target: T1, NQO2; assay: Inhibition of recombinant NQO2, DCPIP reduction with BNAH; assay type: biochemical
NQO2 [5] = target: T1, NQO2; assay: Inhibition of recombinant NQO2, menadione as substrate with BNAH; assay type: biochemical
NQO2 [6] = target: T1, NQO2; assay: Enzyme kinetics of DCPIP reduction by NQO2; assay type: biochemical; conditions: 50 nM NQO2, 100 µM BNAH

Chain of NQO1 (P15559 whole entry): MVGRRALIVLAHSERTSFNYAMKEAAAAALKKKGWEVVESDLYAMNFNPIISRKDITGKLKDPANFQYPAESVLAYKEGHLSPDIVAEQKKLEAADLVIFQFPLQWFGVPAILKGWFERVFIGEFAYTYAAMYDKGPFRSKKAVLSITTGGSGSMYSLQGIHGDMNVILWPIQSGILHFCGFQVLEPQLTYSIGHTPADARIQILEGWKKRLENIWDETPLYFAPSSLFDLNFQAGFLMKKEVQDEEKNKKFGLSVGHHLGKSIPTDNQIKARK

In the case of Nc1c2c(nc3ccccc13)CCCC2 [tacrine], the Ki (NQO2 [1]) is reported as 15 ± 1 µM, the “inhibition of NQO2-mediated reduction of synthetic amodiaquine quinone imine” value (NQO2 [2]) is reported as “concentration-dependent inhibition” and the “effect on CYP metabolism” value (CYP) is reported as “no effect”. The Ki (NQO1) was 193 ± 1 µM, the “plasma concentration of tacrine in humans” value [3] was “around 0.04 μM” and the Ki (NQO2 [4]; Ki value, range over DCPIP and MTT as substrate) was 3 to 15 µM. The Ki (NQO2 [4]; Ki, recombinant NQO2, substrate DCPIP (25 μM), 100 μM BNAH, mean ± SD (n = 3)) was 3 ± 1 µM, the “Ki fold lower than found for NQO2 inhibition by resveratrol” value (NQO2 [4]; substrate DCPIP) was 9 fold and the “Ki for NQO2 fold lower compared to the Ki for NQO1” value (NQO2 [4]; substrate DCPIP) was 64 fold.

Cc1cccc(Nc2ccccc2C(=O)O)c1C [mefenamic acid] showed a Ki (NQO2 [5]) of 66 µM and a Ki (NQO1) of 40 µM.

In the case of CC(=O)Nc1ccc(O)cc1 [Acetaminophen, acetaminophen], the “inhibition of NQO2 activity” value (NQO2 [5]; up to 1 mM) is reported as “did not inhibit” and the “inhibition of NQO1 activity” value (NQO1; up to 1 mM) is reported as “did not inhibit”.

O=C(O)Cc1ccccc1Nc1c(Cl)cccc1Cl [diclofenac] showed a Ki (NQO1) of 13 µM.

In the case of O=C1C(Cl)=CC(=Nc2ccc(O)cc2)C=C1Cl [DCPIP, 2,6-dichlorophenolindophenol], the Km (NQO2 [6]) is reported as 25 µM.
